Experimental data from publication PMC3854447, “Functional characterisation of three members of the Vitis vinifera L. carotenoid cleavage dioxygenase gene family” (BMC Plant Biology, 2013).

Target: T1, VvCCD1 (Vitis vinifera, UniProt U3M7F6)
T1 construct: gene CCD1; 1715 bp coding region from Pinotage cDNA, NdeI/PstI in pTWIN1, expressed in carotenoid-accumulating E. coli
Test: co-expression in carotenoid-accumulating E. coli, HS-SPME GC/MS of volatile apocarotenoid
Type: cell-based
Conditions: beta-carotene strain (pAC-BETA); product beta-ionone; Fe2+ and ascorbate added; room temperature, 16 h, dark

T1 sequence (U3M7F6 1-542): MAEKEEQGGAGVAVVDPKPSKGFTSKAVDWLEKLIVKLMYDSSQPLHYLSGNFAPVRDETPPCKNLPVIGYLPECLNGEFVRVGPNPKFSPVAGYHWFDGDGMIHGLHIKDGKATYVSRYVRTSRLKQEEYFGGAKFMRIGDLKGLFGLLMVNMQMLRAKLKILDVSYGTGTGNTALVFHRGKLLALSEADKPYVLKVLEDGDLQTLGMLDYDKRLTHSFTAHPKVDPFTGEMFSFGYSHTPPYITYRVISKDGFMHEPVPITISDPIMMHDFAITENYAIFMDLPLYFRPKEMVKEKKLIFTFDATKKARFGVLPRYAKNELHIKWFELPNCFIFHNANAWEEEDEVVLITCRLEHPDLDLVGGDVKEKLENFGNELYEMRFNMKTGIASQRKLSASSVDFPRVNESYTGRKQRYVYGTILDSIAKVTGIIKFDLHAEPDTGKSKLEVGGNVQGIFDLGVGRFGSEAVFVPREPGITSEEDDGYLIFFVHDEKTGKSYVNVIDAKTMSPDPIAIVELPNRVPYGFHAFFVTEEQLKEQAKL

CC1=C(/C=C/C(C)=C/C=C/C(C)=C/C=C/C=C(C)/C=C/C=C(C)/C=C/C2=C(C)CCCC2(C)C)C(C)(C)CCC1 [β-carotene]
co-expression in carotenoid-accumulating E. coli, HS-SPME GC/MS of volatile apoc: Only VvCCD1, however, catalysed β-carotene cleavage to form β-ionone
